Results reported in patent US10954228B2 (NATIONAL INSTITUTES OF HEALTH, UNITED STATES DEPARTMENT OF …, priority 2016, dated 2021).
pIC50: −log10 of the molar value.

Tests used:
Human LDHA = Human LDHA (Homo sapiens (Human), UniProt P00338); assay: human LDHA primary biochemical assay; conditions: biochemical LDHA inhibitory activity, assay of Example 1; activity level classes defined in nM
Outline: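 Human LDHA at 2 nM with 0.06 mM NADH and 0.2 mM sodium pyruvate in 200 mM Tris HCl pH 7.4, 100 μM EDTA, 0.01% TWEEN-20 (final). NADH consumption coupled to resazurin/diaphorase (0.037 mM; 0.133 mg/mL); inhibition read by fluorescence.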

MiaPaCa2 cells = assay: cell-based HT lactate assay by colorimetric/fluorometric detection (cellular inhibition of lactate production)
Description: This example describes a cell-based metabolite assay by colorimetric/fluorometric detection employed in the characterization of a compound of formula (I) in an embodiment of the invention.
Cell-based HT Lactate assay is a miniaturized Biovision Lactate Colorimetric/Fluorometric Assay Kit (Cat #K607-100). The assay is roughly a 3.5 hour assay run in a 1536 plate format. Cell number optimization should be run for each cell line to achieve an optimal number in which lactate production equals roughly 90% of the standard curve range. Cell number per well optimization has been performed with the following cell lines: MiaPaCa2—500 cells/well, SNU398—500 cells/well, and P493—500 cells/well.

[1] = Homo sapiens, MIA PaCa-2, assay of Example 6

| SMILES | IC50 (Human LDHA) | pIC50 (MiaPaCa2 cells; [1]) | pIC50 (MiaPaCa2 cells; assay of Example 6) |
| --- | --- | --- | --- |
| NS(=O)(=O)c1ccc(Cc2c(-c3ccc(F)c(-c4ccc5c(c4)CCCC5)c3)nn(-c3nc(C(=O)O)cs3)c2CC2CC2)cc1F [Compound 143, 2-(5-(cyclopropylmethyl)-3-(4-fluoro-3-(5,6,7,8-tetrahydronaphthalen-2-yl)phenyl)-4-(3-fluoro-4-sulfamoylbenzyl)-1H-pyrazol-1-yl)thiazole-4-carboxylic acid] | < 100 nM | > 6.00 |  |
| Cc1cnc(C#Cc2cccc(-c3nn(-c4nc(C(=O)O)cs4)c(CC4CC4)c3Cc3ccc(S(N)(=O)=O)c(F)c3)c2)o1 [Compound 122, 2-(5-(cyclopropylmethyl)-4-(3-fluoro-4-sulfamoylbenzyl)-3-(3-((5-methyloxazol-2-yl)ethynyl)phenyl)-1H-pyrazol-1-yl)thiazole-4-carboxylic acid] | < 100 nM | > 6.00 |  |
| Cc1ccc(-c2cccc(-c3nn(-c4nc(C(=O)O)cs4)c(CC4CC4)c3Cc3ccc(S(N)(=O)=O)c(F)c3)c2)cc1F [Compound 167, 2-(5-(cyclopropylmethyl)-3-(3′-fluoro-4′-methyl-[1,1′-biphenyl]-3-yl)-4-(3-fluoro-4-sulfamoylbenzyl)-1H-pyrazol-1-yl)thiazole-4-carboxylic acid] | < 100 nM | > 6.00 |  |
| N#Cc1ccc(-c2cccc(-c3nn(-c4nc(C(=O)O)cs4)c(CC4CC4)c3Cc3ccc(S(N)(=O)=O)c(F)c3)c2)cc1 [Compound 176, 2-(3-(4′-cyano-[1,1′-biphenyl]-3-yl)-5-(cyclopropylmethyl)-4-(3-fluoro-4-sulfamoylbenzyl)-1H-pyrazol-1-yl)thiazole-4-carboxylic acid] | < 100 nM | < 4.24 |  |
| Cc1ccc(C2CC(c3cccc(-c4nn(-c5nc(C(=O)O)cs5)c(CC5CC5)c4Cc4ccc(S(N)(=O)=O)c(F)c4)c3)C2)s1 (centres unmarked) [Compound 133, 2-(5-(cyclopropylmethyl)-4-(3-fluoro-4-sulfamoylbenzyl)-3-(3-(3-(5-methylthiophen-2-yl)cyclobutyl)phenyl)-1H-pyrazol-1-yl)thiazole-4-carboxylic acid] | < 100 nM |  | > 6.00 |
| CN(C)c1ccc(-c2cccc(-c3nn(-c4nc(C(=O)O)cs4)c(CC4CC4)c3Cc3ccc(S(N)(=O)=O)c(F)c3)c2)cc1 [Compound 178, 2-(5-(cyclopropylmethyl)-3-(4′-(dimethylamino)-[1,1′-biphenyl]-3-yl)-4-(3-fluoro-4-sulfamoylbenzyl)-1H-pyrazol-1-yl)thiazole-4-carboxylic acid] | < 100 nM | < 4.24 |  |
| COC1CC=C(c2cc(-c3nn(-c4nc(C(=O)O)cs4)c(CC4CC4)c3Cc3ccc(S(N)(=O)=O)c(F)c3)ccc2F)CC1 (centres unmarked) [Compound 104, 2-(5-(cyclopropylmethyl)-3-(6-fluoro-4′-methoxy-2′,3′,4′,5′-tetrahydro-[1,1′-biphenyl]-3-yl)-4-(3-fluoro-4-sulfamoylbenzyl)-1H-pyrazol-1-yl) thiazole-4-carboxylic acid] | < 100 nM | > 6.00 |  |
| CC1CC=C(c2cc(-c3nn(-c4nc(C(=O)O)cs4)c(CC4CC4)c3Cc3ccc(S(N)(=O)=O)c(F)c3)ccc2F)CC1 (centres unmarked) [Compound 101, 2-(5-(cyclopropylmethyl)-3-(6-fluoro-4′-methyl-2′,3′,4′,5′-tetrahydro-[1,1′-biphenyl]-3-yl)-4-(3-fluoro-4-sulfamoylbenzyl)-1H-pyrazol-1-yl)thiazole-4-carboxylic acid] | < 100 nM | > 6.00 |  |
| CC(C)c1ccc(-c2cccc(-c3nn(-c4nc(C(=O)O)cs4)c(CC4CC4)c3Cc3ccc(S(N)(=O)=O)c(F)c3)c2)cc1 [Compound 169, 2-(5-(cyclopropylmethyl)-4-(3-fluoro-4-sulfamoylbenzyl)-3-(4′-isopropyl-[1,1′-biphenyl]-3-yl)-1H-pyrazol-1-yl)thiazole-4-carboxylic acid] | < 100 nM | > 6.00 |  |
| Cc1cccc(-c2cc(-c3nn(-c4nc(C(=O)O)cs4)c(CC4CC4)c3Cc3ccc(S(N)(=O)=O)c(F)c3)ccc2F)c1 [Compound 141] | < 100 nM |  | > 6.00 |
| COc1ccc(-c2cccc(-c3nn(-c4nc(C(=O)O)cs4)c(CC4CC4)c3Cc3ccc(S(N)(=O)=O)c(F)c3)c2)cc1C [Compound 165, 2-(5-(cyclopropylmethyl)-4-(3-fluoro-4-sulfamoylbenzyl)-3-(4′-methoxy-3′-methyl-[1,1′-biphenyl]-3-yl)-1H-pyrazol-1-yl) thiazole-4-carboxylic acid] | < 100 nM | > 6.00 |  |
| Cc1ccc([C@H]2C[C@@H](c3cccc(-c4nn(-c5nc(C(=O)O)cs5)c(CC5CC5)c4Cc4ccc(S(N)(=O)=O)c(F)c4)c3)C2)s1 [Compound 132, 2-(5-(cyclopropylmethyl)-4-(3-fluoro-4-sulfamoylbenzyl)-3-(3-((cis)-3-(5-methylthiophen-2-yl)cyclobutyl)phenyl)-1H-pyrazol-1-yl)thiazole-4-carboxylic acid] | < 100 nM | > 6.00 |  |

Second part, led by results:

| IC50 (Human LDHA) | pIC50 (MiaPaCa2 cells; [1]) | SMILES | pIC50 (MiaPaCa2 cells; assay of Example 6) |
| --- | --- | --- | --- |
| 100 to 1000 nM | > 6.00 | NS(=O)(=O)c1ccc(Cc2c(-c3cccc(C#Cc4ccc(C(F)(F)F)s4)c3)nn(-c3nc(C(=O)O)cs3)c2CC2CC2)cc1F [Compound 124, 2-(5-(cyclopropylmethyl)-4-(3-fluoro-4-sulfamoylbenzyl)-3-(3-((5-(trifluoromethyl)thiophen-2-yl)ethynyl)phenyl)-1H-pyrazol-1-yl)thiazole-4-carboxylic acid] |  |
| < 100 nM | > 6.00 | Cc1ccc(C#Cc2cccc(-c3nn(-c4nc(C(=O)O)cs4)c(CC4(C)CC4)c3Cc3ccc(S(N)(=O)=O)c(F)c3)c2)s1 [Compound 123, 2-(4-(3-fluoro-4-sulfamoylbenzyl)-5-((1-methylcyclopropyl)methyl)-3-(3-((5-methylthiophen-2-yl)ethynyl)phenyl)-1H-pyrazol-1-yl)thiazole-4-carboxylic acid] |  |
| < 100 nM | > 6.00 | COc1ccc(-c2cc(-c3nn(-c4nc(C(=O)O)cs4)c(CC4CC4)c3Cc3ccc(S(N)(=O)=O)c(F)c3)ccc2F)cc1C [Compound 150, 2-(5-(cyclopropylmethyl)-3-(6-fluoro-4′-methoxy-3′-methyl-[1,1′-biphenyl]-3-yl)-4-(3-fluoro-4-sulfamoylbenzyl)-1H-pyrazol-1-yl)thiazole-4-carboxylic acid] |  |
| < 100 nM | > 6.00 | Cc1cnc(C#Cc2cc(-c3nn(-c4nc(C(=O)O)cs4)c(CC4CC4)c3Cc3ccc(S(N)(=O)=O)c(F)c3)ccc2F)s1 [Compound 114, 2-(5-(cyclopropylmethyl)-3-(4-fluoro-3-((5-methylthiazol-2-yl)ethynyl)phenyl)-4-(3-fluoro-4-sulfamoylbenzyl)-1H-pyrazol-1-yl) thiazole-4-carboxylic acid] |  |
| 100 to 1000 nM | > 6.00 | NS(=O)(=O)c1ccc(Cc2c(-c3ccc(F)c(-c4cc(Cl)cc(Cl)c4)c3)nn(-c3nc(C(=O)O)cs3)c2CC2CC2)cc1F [Compound 157, 2-(5-(cyclopropylmethyl)-3-(3′,5′-dichloro-6-fluoro-[1,1′-biphenyl]-3-yl)-4-(3-fluoro-4-sulfamoylbenzyl)-1H-pyrazol-1-yl)thiazole-4-carboxylic acid] |  |
| < 100 nM | > 6.00 | NS(=O)(=O)c1ccc(Cc2c(-c3ccc(F)c(C4=CCC(C(F)(F)F)CC4)c3)nn(-c3nc(C(=O)O)cs3)c2CC2CC2)cc1F (centres unmarked) [Compound 102, 2-(5-(cyclopropylmethyl)-3-(6-fluoro-4′-(trifluoromethyl)-2′,3′,4′,5′-tetrahydro-[1,1′-biphenyl]-3-yl)-4-(3-fluoro-4-sulfamoylbenzyl)-1H-pyrazol-1-yl)thiazole-4-carboxylic acid] |  |
| < 100 nM | > 6.00 | NS(=O)(=O)c1ccc(Cc2c(-c3ccc(F)c(C4=CCC(F)(F)CC4)c3)nn(-c3nc(C(=O)O)cs3)c2CC2CC2)cc1F [Compound 107, 2-(5-(cyclopropylmethyl)-4-(3-fluoro-4-sulfamoylbenzyl)-3-(4′,4′,6-trifluoro-2′,3′,4′,5′-tetrahydro-[1,1′-biphenyl]-3-yl)-1H-pyrazol-1-yl)thiazole-4-carboxylic acid] |  |
| < 100 nM | > 6.00 | NS(=O)(=O)c1ccc(Cc2c(-c3ccc(F)c(-c4ccc(Cl)c(F)c4)c3)nn(-c3nc(C(=O)O)cs3)c2CC2CC2)cc1F [Compound 144, 2-(3-(4′-chloro-3′,6-difluoro-[1,1′-biphenyl]-3-yl)-5-(cyclopropylmethyl)-4-(3-fluoro-4-sulfamoylbenzyl)-1H-pyrazol-1-yl)thiazole-4-carboxylic acid] |  |
| < 100 nM | > 6.00 | Cc1ccc(/C=C/c2cccc(-c3nn(-c4nc(C(=O)O)cs4)c(CC4CC4)c3Cc3ccc(S(N)(=O)=O)c(F)c3)c2)s1 [Compound 119, (E)-2-(5-(cyclopropylmethyl)-4-(3-fluoro-4-sulfamoylbenzyl)-3-(3-(2-(5-methylthiophen-2-yl)vinyl)phenyl)-1H-pyrazol-1-yl)thiazole-4-carboxylic acid] |  |
| < 100 nM | > 6.00 | Cc1ccc(C#Cc2cccc(-c3nn(-c4nc(C(=O)O)cs4)c(CCC4CC4)c3Cc3ccc(S(N)(=O)=O)c(F)c3)c2)s1 [Compound 115, 2-(5-(2-cyclopropylethyl)-4-(3-fluoro-4-sulfamoylbenzyl)-3-(3-((5-methylthiophen-2-yl)ethynyl)phenyl)-1H-pyrazol-1-yl)thiazole-4-carboxylic acid] |  |
